In patent EP2649091B1, “IMMUNE RESTRICTED PEPTIDES WITH INCREASED EFFICACY” (Stichting Het Nederlands Kanker Instituut, priority 2010, dated 2012):

Columns and labels:
[1] = system: SVYDFFVWL (TRP-2 180-188) reactive T cells; assay: T cell activation time course assay, IFNγ production (FACS), TRP-2 epitope; conditions: for % CD8+ T cells producing IFN-γ peptide concentrations in picomolar 24H 0.5 / Geometric mean IFN-γ in arbitrary fluorescence units peptide concentrations in picomolar 24H 0.5 / % CD8+ T cells producing IFN-γ peptide concentrations in picomolar 48H 0.5 / Geometric mean IFN-γ in arbitrary fluorescence units peptide concentrations in picomolar 48H 0.5: peptide 0.5 pM; for % CD8+ T cells producing IFN-γ peptide concentrations in picomolar 24H 50 / Geometric mean IFN-γ in arbitrary fluorescence units peptide concentrations in picomolar 24H 50 / % CD8+ T cells producing IFN-γ peptide concentrations in picomolar 48H 50 / Geometric mean IFN-γ in arbitrary fluorescence units peptide concentrations in picomolar 48H 50: peptide 50 pM; for % CD8+ T cells producing IFN-γ peptide concentrations in picomolar 24H 5·10^3 / Geometric mean IFN-γ in arbitrary fluorescence units peptide concentrations in picomolar 24H 5·10^3 / % CD8+ T cells producing IFN-γ peptide concentrations in picomolar 48H 5·10^3 / Geometric mean IFN-γ in arbitrary fluorescence units peptide concentrations in picomolar 48H 5·10^3: peptide 5·10^3 pM
HLA-A0201 = HLA-A0201 (Homo sapiens, UniProt P04439, D140Y/D185E/D98H/E176V/E277Q/G131W/G231S/I119V/I121R/I166T/I218V/L300P/L318F/N151K/N90K/P208A/P217A/Q86G/Q94H/R138H/R169H/T345S); type: binding

Substance | % CD8+ T cells producing IFN-γ peptide concentrations in picomolar 24H 0.5 [1] | Geometric mean IFN-γ in arbitrary fluorescence units peptide concentrations in picomolar 24H 0.5 [1] | % CD8+ T cells producing IFN-γ peptide concentrations in picomolar 24H 50 [1] | Geometric mean IFN-γ in arbitrary fluorescence units peptide concentrations in picomolar 24H 50 [1] | % CD8+ T cells producing IFN-γ peptide concentrations in picomolar 24H 5·10^3 [1] | Geometric mean IFN-γ in arbitrary fluorescence units peptide concentrations in picomolar 24H 5·10^3 [1] | % CD8+ T cells producing IFN-γ peptide concentrations in picomolar 48H 0.5 [1] | Geometric mean IFN-γ in arbitrary fluorescence units peptide concentrations in picomolar 48H 0.5 [1] | % CD8+ T cells producing IFN-γ peptide concentrations in picomolar 48H 50 [1] | Geometric mean IFN-γ in arbitrary fluorescence units peptide concentrations in picomolar 48H 50 [1] | % CD8+ T cells producing IFN-γ peptide concentrations in picomolar 48H 5·10^3 [1] | Geometric mean IFN-γ in arbitrary fluorescence units peptide concentrations in picomolar 48H 5·10^3 [1] | % inhibition at T=4H and T=24H FP 4h (HLA-A0201) | % inhibition at T=4H and T=24H FP 24h (HLA-A0201) | % inhibition at T=4H and T=24H FP 4H (HLA-A0201) | % inhibition at T=4H and T=24H FP 24H (HLA-A0201)
[PHG][NVA]YDFFVW[ALG] | 0% | 84 arbitrary fluorescence units | 6% | 71 arbitrary fluorescence units | 35% | 185 arbitrary fluorescence units | 1% | 64 arbitrary fluorescence units | 1% | 64 arbitrary fluorescence units | 22% | 142 arbitrary fluorescence units | 76% | 73% |  | 
[PHG][2-AOC]YDFFVWL | 0% | 85 arbitrary fluorescence units | 14% | 95 arbitrary fluorescence units | 30% | 224 arbitrary fluorescence units | 1% | 75 arbitrary fluorescence units | 3% |  | 33% | 184 arbitrary fluorescence units | 90% | 75% |  | 
[CSME][NVA]YDFFVW[PRG] | 0% | 67 arbitrary fluorescence units | 6% | 80 arbitrary fluorescence units | 26% | 175 arbitrary fluorescence units | 1% | 93 arbitrary fluorescence units | 1% | 67 arbitrary fluorescence units | 26% | 130 arbitrary fluorescence units | 78% | 78% |  | 
[CSME][2-AOC]YDFFVWL | 1% | 71 arbitrary fluorescence units | 20% |  | 30% | 264 arbitrary fluorescence units | 0% | 68 arbitrary fluorescence units | 5% |  | 33% | 224 arbitrary fluorescence units | 88% | 76% | 88% | 76%
[CSME][2-AOC]YDFFVW[PRG] | 0% | 67 arbitrary fluorescence units | 1% | 73 arbitrary fluorescence units | 7% | 84 arbitrary fluorescence units | 0% | 67 arbitrary fluorescence units | 0% | 6 arbitrary fluorescence units | 0% | 72 arbitrary fluorescence units | 98% | 89% |  | 
[am-phg][NVA]YDFFVWL | 1% | 59 arbitrary fluorescence units | 26% |  | 34% | 326 arbitrary fluorescence units | 1% | 78 arbitrary fluorescence units | 18% |  | 40% | 255 arbitrary fluorescence units | 79% | 77% |  | 
[PHG][CpALA]YDFFVWL | 1% | 71 arbitrary fluorescence units | 12% | 87 arbitrary fluorescence units | 30% | 221 arbitrary fluorescence units | 0% | 70 arbitrary fluorescence units | 6% |  | 34% | 183 arbitrary fluorescence units | 77% | 75% |  | 
[am-phg][2-AOC]YDFFVW[ALG] | 0% | 98 arbitrary fluorescence units | 1% | 69 arbitrary fluorescence units | 7% | 79 arbitrary fluorescence units | 0% | 76 arbitrary fluorescence units | 0% | 80 arbitrary fluorescence units | 4% | 71 arbitrary fluorescence units | 73% | 73% |  | 
